Columns and labels:
[1] = Injection site observation in pritelivir PK studies (Examples 1-4); format: in vivo, rat, monkey, dog; details: SC pritelivir depot formulations, Examples 1-4, 3 species
Method: Male Sprague Dawley (SD) rats with ~300 g body weight (ages 6-8 weeks) were used for the pharmacokinetic study. The animals had free access to food and water. The pritelivir suspensions described above were administered via sub-cutaneous injection to each animal group (n=3) with a dosing volume of 3.33 mL/kg to achieve 33.33 mg/kg and 166.67 mg/kg doses.
Male SD rats with 230-250 g body weight, ages 6-8 weeks were used for the rat PK study. The animals had free access to food and water. The prepared suspension was administered via subcutaneous injection to each animal group (n=3) with a dosing volume of 3.33 mL/kg to achieve a 10 mg/kg dose.
Male non-naïve Cyno Monkeys with −5 kg body weight was used for the monkey PK study. The animals had free access to food and water. The prepared suspension was administered via subcutaneous injection to each animal group (n=3) with a dosing volume of 3.33 mL/kg to achieve a 10 mg/kg dose.
Male non-naïve beagles were used for the dog PK study. The animals had free access to food and water. The prepared suspension was administered via subcutaneous injection to each animal group (n=3) with a dosing volume of 2 mL/kg to achieve a 10 mg/kg dose.

[2] = Injection site observation in Example 10-12 Compound 1 PK studies; format: in vivo, rat, monkey, dog; details: SC Compound 1 depot formulations, Examples 10-12, 3 species
Method: The Compound 1 suspension described above was administered via sub-cutaneous injection to each animal group (n=3) with a dosing volume of 3.33 mL/kg to achieve a 10 mg/kg dose.
Male non-naïve Cyno Monkeys with ~4-6 kg body weight were used for the monkey PK study. The animals had free access to food and water. The prepared suspension was administered via subcutaneous injection to each animal group (n=3) with a dosing volume of 3.33 mL/kg to achieve a 10 mg/kg dose.
Male non-naïve beagles with ~10 kg body weight were used for the dog PK study. The animals had free access to food and water. The prepared suspension was administered via subcutaneous injection to each animal group (n=3) with a dosing volume of 2 mL/kg to achieve a 10 mg/kg dose.

Compound	adverse reactions at the injection sites [1]	adverse reactions at the injection sites [2]
Cc1nc(N(C)C(=O)Cc2ccc(-c3ccccn3)cc2)sc1S(N)(=O)=O [pritelivir, N-methyl-N-(4-methyl-5-sulfamoyl-1,3-thiazol-2-yl)-2-[4-(pyridin-2-yl)phenyl]acetamide]	no adverse reactions observed	
Cc1nc(N2CCCN(c3ccc(-c4cc(F)ccc4F)cc3)C2=O)sc1S(N)(=O)=O [Compound 1, 2-(3-(2′,5′-difluoro-[1,1′-biphenyl]-4-yl)-2-oxotetrahydropyrimidin-1(2H)-yl)-4-methylthiazole-5-sulfonamide]		no adverse reactions observed

— US20260216057A1, “PHARMACEUTICAL COMPOSITIONS FOR HERPES VIRUS” (priority 2022, published 2026)
